Laboratory results from PubChem BioAssay (NCI).
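Dose response: 5 concentrations. Exposure: 48 h. Format: 96-well plates. Endpoint: linear interpolation; highest concentration if not reached. At the TGI there is no net growth.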

Columns and labels:
Assay in all cases: DTP human tumour cell line panel, 48 h
A549 NSCLC = test system: A549 NSCLC
BT-549 breast = test system: BT-549 breast
CAKI-1 renal = test system: CAKI-1 renal
COLO 205 colon = test system: COLO 205 colon
HCC-2998 colon = test system: HCC-2998 colon
HOP-92 NSCLC = test system: HOP-92 NSCLC
MDA-MB-231 breast = test system: MDA-MB-231 breast
NCI-H522 lung = test system: NCI-H522 lung
OVCAR-3 ovarian = test system: OVCAR-3 ovarian
PC-3 prostate = test system: PC-3 prostate
SF-268 CNS = test system: SF-268 CNS
SF-539 CNS = test system: SF-539 CNS
SK-MEL-5 melanoma = test system: SK-MEL-5 melanoma
SN12C renal = test system: SN12C renal
SW-620 colon = test system: SW-620 colon
U251 CNS = test system: U251 CNS
UACC-62 melanoma = test system: UACC-62 melanoma
UO-31 renal = test system: UO-31 renal

| SMILES | TGI (A549 NSCLC) [µM] | TGI (BT-549 breast) [µM] | TGI (CAKI-1 renal) [µM] | TGI (COLO 205 colon) [µM] | TGI (HCC-2998 colon) [µM] | TGI (HOP-92 NSCLC) [µM] | TGI (MDA-MB-231 breast) [µM] | TGI (NCI-H522 lung) [µM] | TGI (OVCAR-3 ovarian) [µM] | TGI (PC-3 prostate) [µM] | TGI (SF-268 CNS) [µM] | TGI (SF-539 CNS) [µM] | TGI (SK-MEL-5 melanoma) [µM] | TGI (SN12C renal) [µM] | TGI (SW-620 colon) [µM] | TGI (U251 CNS) [µM] | TGI (UACC-62 melanoma) [µM] | TGI (UO-31 renal) [µM] |
| --- | --- | --- | --- | --- | --- | --- | --- | --- | --- | --- | --- | --- | --- | --- | --- | --- | --- | --- |
| CCOc1cccc(C=Nc2ccccc2SSc2ccccc2N=Cc2cccc(OCC)c2O)c1O | 26.6 | 8.19 | 29.3 | 12.4 | 44.1 | 33.3 | 35 | 10.4 | 8.16 | 12.8 | 21.5 | 80.2 | 7.58 | 35.7 | 23.1 | 13.2 | 22 | 26.6 |
| C=CCN1C(=O)/C(=C/c2ccc(Cl)cc2)N=C1SC/C=C/C | > 100 | > 100 | > 100 | > 100 | > 100 | 84.2 | > 100 | > 100 | > 100 | > 100 | > 100 | > 100 | 82 | 71.1 | > 100 | 84.8 | > 100 | > 100 |
| O=C1c2ccccc2-c2nnc(-c3ccc([N+](=O)[O-])cc3)cc21 | > 10 | > 10 | > 10 | > 10 | > 10 | > 10 | > 10 | > 10 | > 10 | > 10 | > 10 | > 10 | > 10 | > 10 | > 10 | > 10 | > 10 | > 10 |
| C[N+]12CCCCC1C(COc1cccc3cccnc13)CCC2 (stereo unspecified) | > 100 | > 100 | > 100 | > 100 | > 100 | > 100 | > 100 | > 100 | > 100 | > 100 | > 100 | > 100 | > 100 | > 100 | > 100 | > 100 | > 100 | > 100 |
| C=CC(C)(C)n1cc(C2=C3OC(=O)C(c4cn(C(C)(C)C=C)c5ccccc45)=C3OC2=O)c2ccccc21 | > 100 | > 100 | > 100 | > 100 | > 100 | > 100 | > 100 | > 100 | > 100 | > 100 | > 100 | > 100 | > 100 | > 100 | > 100 | > 100 | – | > 100 |
| CCOC(=O)/C(C#N)=C/Nc1c(C)n(C)n(-c2ccccc2)c1=O | > 100 | > 100 | > 100 | > 100 | > 100 | > 100 | > 100 | > 100 | > 100 | > 100 | – | > 100 | > 100 | > 100 | > 100 | > 100 | > 100 | > 100 |
| COC(=O)C1=CC2C(=O)c3ccccc3C1(c1ccccc1)N2C1CCCCC1 (stereo unspecified) | > 100 | 79.7 | 46.1 | 26.2 | 30.1 | > 100 | 42.8 | 82.3 | 95 | > 100 | > 100 | 41.5 | 22 | > 100 | > 100 | 43.7 | – | > 100 |
| OC1=C2c3ccccc3NC2Oc2cc(F)ccc21 (stereo unspecified) | 52.7 | 48.2 | 48.4 | 27.6 | 32.4 | 54.1 | 33 | 52.8 | 27.9 | 41.4 | 40.3 | – | 28.2 | 25.9 | 47.9 | 29.6 | 34.7 | 28.2 |
| CC1=NN(c2cccc(S(=O)(=O)O)c2)C2(C1)C(Cl)C(=O)N2c1nc2ccccc2s1 (stereo unspecified) | 26.4 | 18.7 | 8.48 | 24.8 | 28.5 | 9.95 | 23.1 | 3.99 | 9.26 | 22.9 | 22.9 | – | 18.8 | 19.9 | 21.1 | 16.3 | 19.1 | 8.27 |
| O=C(O)c1cccc(Nc2c(C(=O)O)cccc2[N+](=O)[O-])c1 | > 100 | > 100 | > 100 | > 100 | > 100 | > 100 | > 100 | > 100 | > 100 | > 100 | – | > 100 | > 100 | > 100 | – | – | > 100 | > 100 |
| CC(=O)O[C@H]1C(=O)[C@@]2(C)[C@H]([C@H](OC(=O)c3ccccc3)[C@]3(O)C[C@H](OC(=O)[C@H](O)[C@@H](NC(=O)c4ccc(N)cc4)c4ccccc4)C(C)=C1C3(C)C)[C@]1(OC(C)=O)CO[C@@H]1C[C@@H]2O | > 50 | > 50 | > 50 | – | 0.0545 | > 50 | > 50 | > 50 | 0.0224 | > 50 | > 50 | 0.0309 | > 50 | – | > 50 | > 50 | > 50 | > 50 |
| COc1cc2c(cc1OCCCNC(=O)c1cc3ccccc3[nH]1)N=C[C@@H]1CCCN1C2=O | > 100 | 0.559 | – | – | 10.5 | > 100 | > 35.2 | 0.0462 | > 100 | 5.79 | 0.237 | 0.539 | 0.297 | 14.9 | > 100 | > 33.6 | 0.705 | > 100 |
| CN1CCCC2C(c3ccccc3)C(C3=NCCCC3)C(c3ccccc3)CC21 (stereo unspecified) | > 100 | > 100 | > 100 | 66.1 | 31.4 | > 100 | > 100 | 54.5 | > 100 | > 100 | > 100 | 31.3 | 31.7 | > 100 | > 100 | > 100 | 32.4 | – |
